In patent US20220125765A1, “PHARMACEUTICAL COMBINATIONS COMPRISING MEBENDAZOLE AND A STRONG OR MODERATE CYP1A2 INHIBITOR” (ZEPHAPHARM LTD, priority 2019, published 2022):

Tests used:
[1] = tested on: SXFS 1301; assay: 2D monolayer CellTiter-Blue viability, soft tissue sarcoma SXFS 1301; assay type: cell-based; details: 72 h
Description: (§1) Seventeen compounds, including mebendazole (Batch no. […] Efficacy of compounds was assessed using CellTiter-Blue® Cell Viability Assay. Anti-tumor activity is expressed as absolute and relative IC50 and IC70 values, calculated by non-linear regression analysis.

[2] = in vitro; details: human, cryopreserved hepatocytes (suspension)
Description: (§2) The amount of test compound remaining at each time point was analysed by LC-MS/MS. Appropriate control compounds were also incubated.
(§3) The final incubation volume was 500 μL. Appropriate control compounds were included, alongside appropriate vehicle control.
(§4) The reactions were stopped by transferring 50 μL of incubate to 100 μL acetonitrile containing internal standard at the appropriate time points (0, 5, 10, 20, 40 and 60 min). The termination plates were centrifuged at 2500 rpm at 4° C. for 30 min to precipitate the protein.

[3] = tested on: SXFS TE671; assay: 2D monolayer CellTiter-Blue viability, soft tissue sarcoma TE671; assay type: cell-based; details: 72 h
Description: as §1

[4] = tested on: SXFS Hs 729; assay: 2D monolayer CellTiter-Blue viability, soft tissue sarcoma Hs 729; assay type: cell-based; details: 72 h
Description: as §1

[5] = in vitro; details: human; for half-life at 1 μM: cryopreserved hepatocytes; for hepatocyte CLint at 1 µM: cryopreserved hepatocytes (suspension)
Description: as §2, §3, §4

COC(=O)Nc1nc2ccc(C(=O)c3ccccc3)cc2[nH]1 [Mebendazole, methyl N-(6-benzoyl-1H-benzimidazol-2-yl)carbamate]
Test/Control (%) at Drug Concentration ([1]; SXFS 1301, 1.0E+01 μM): 38%
Test/Control (%) at Drug Concentration ([1]; SXFS 1301, 1.0E+02 μM): 8%
Test/Control (%) at Drug Concentration ([1]; SXFS 1301, 1.0E−01 μM): 84%
Test/Control (%) at Drug Concentration ([1]; SXFS 1301, 1.0E−02 μM): 106%
Test/Control (%) at Drug Concentration ([1]; SXFS 1301, 3.2E+00 μM): 33%
Test/Control (%) at Drug Concentration ([1]; SXFS 1301, 3.2E+01 μM): 36%
Test/Control (%) at Drug Concentration ([1]; SXFS 1301, 3.2E−01 μM): 55%
Test/Control (%) at Drug Concentration ([1]; SXFS 1301, 3.2E−02 μM): 98%
Test/Control (%) at Drug Concentration ([1]; SXFS 1301, 3.2E−03 μM): 101%
half-life at 1 μM [2]: 1.52 h
hepatocyte CLint at 1 µM [2]: 15.2 µL/min/1e6 cells
half-life at 1 μM ([2]; with fluvoxamine 10 μM): 30.7 h
hepatocyte CLint at 1 µM ([2]; with fluvoxamine 10 μM): 0.751 µL/min/1e6 cells
half-life at 1 μM ([2]; with fluvoxamine 300 μM): 3.75 h
hepatocyte CLint at 1 µM ([2]; with fluvoxamine 300 μM): 6.16 ± 1.7 µL/min/1e6 cells
half-life at 1 μM ([2]; with mexiletine 10 μM): 2.27 h
half-life at 1 μM ([2]; with mexiletine 30 μM): 11.9 h
half-life at 1 μM ([2]; with mexiletine 100 μM): 5.28 h
half-life at 1 μM ([2]; with mexiletine 300 μM): 11.1 h
hepatocyte CLint at 1 µM ([2]; with mexiletine 300 μM): 2.08 ± 1.8 µL/min/1e6 cells
Test/Control (%) at Drug Concentration ([3]; TE671, 1.0E+00 μM): 38%
Test/Control (%) at Drug Concentration ([3]; TE671, 1.0E+01 μM): 17%
Test/Control (%) at Drug Concentration ([3]; TE671, 1.0E+02 μM): 5%
Test/Control (%) at Drug Concentration ([3]; TE671, 1.0E−01 μM): 72%
Test/Control (%) at Drug Concentration ([3]; TE671, 1.0E−02 μM): 87%
Test/Control (%) at Drug Concentration ([3]; TE671, 3.2E+00 μM): 32%
Test/Control (%) at Drug Concentration ([3]; TE671, 3.2E+01 μM): 13%
Test/Control (%) at Drug Concentration ([3]; TE671, 3.2E−01 μM): 45%
Test/Control (%) at Drug Concentration ([3]; TE671, 3.2E−02 μM): 85%
Test/Control (%) at Drug Concentration ([3]; TE671, 3.2E−03 μM): 80%
Test/Control (%) at Drug Concentration ([4]; Hs 729, 1.0E+00 μM): 65%
Test/Control (%) at Drug Concentration ([4]; Hs 729, 1.0E+01 μM): 44%
Test/Control (%) at Drug Concentration ([4]; Hs 729, 1.0E+02 μM): 12%
Test/Control (%) at Drug Concentration ([4]; Hs 729, 1.0E−01 μM): 90%
Test/Control (%) at Drug Concentration ([4]; Hs 729, 1.0E−02 μM): 91%
Test/Control (%) at Drug Concentration ([4]; Hs 729, 3.2E+00 μM): 56%
Test/Control (%) at Drug Concentration ([4]; Hs 729, 3.2E+01 μM): 35%
Test/Control (%) at Drug Concentration ([4]; Hs 729, 3.2E−01 μM): 84%
Test/Control (%) at Drug Concentration ([4]; Hs 729, 3.2E−02 μM): 89%
Test/Control (%) at Drug Concentration ([4]; Hs 729, 3.2E−03 μM): 93%
half-life at 1 μM [5]: 1.92 h
hepatocyte CLint at 1 µM [5]: 12.1 ± 0.601 µL/min/1e6 cells
hepatocyte CLint at 1 µM ([5]; with cimetidine 30 µM): 24.8 ± 1.82 µL/min/1e6 cells
hepatocyte CLint at 1 µM ([5]; with cimetidine 100 µM): 18 ± 1.19 µL/min/1e6 cells
hepatocyte CLint at 1 µM ([5]; with cimetidine 300 µM): 24.8 ± 2.36 µL/min/1e6 cells
hepatocyte CLint at 1 µM ([5]; with fluvoxamine 3 µM): 8.14 ± 1.53 µL/min/1e6 cells
hepatocyte CLint at 1 µM ([5]; with fluvoxamine 10 μM): 10.8 ± 2.32 µL/min/1e6 cells
half-life at 1 μM ([5]; with cimetidine 30 μM): 0.932 h
half-life at 1 μM ([5]; with cimetidine 100 μM): 1.29 h
half-life at 1 μM ([5]; with cimetidine 300 μM): 0.932 h
half-life at 1 μM ([5]; with fluvoxamine 3 μM): 2.83 h
half-life at 1 μM ([5]; with fluvoxamine 10 μM): 2.13 h
half-life at 1 μM ([5]; with mexiletine 10 μM): 5.1 h
half-life at 1 μM ([5]; with mexiletine 30 μM): 2.2 h
half-life at 1 μM ([5]; with mexiletine 100 μM): 2 h
